Consider five molecules from patent publication US20210221866A1, “PROTEASE-RESISTANT LIPIDATED GLP-1 ANALOGS” (MEDIMMUNE LIMITED, priority 2015, published 2021).

pEC50: −log10 of the molar value. Like-named read-outs stand apart in the source and are kept apart here. Numbered stars: 1 amine (or outer) side, 2 acyl side, 3 side chain; on linkers, the order of the positions; unused ones are H or OH. Square brackets hold non-standard residues; d marks the D form. Side chains are listed from the residue outwards. Peptide text beside a SMILES is read from it. * marks the point of attachment. C18 diacid = O=C(O)CCCCCCCCCCCCCCCCC(=O)*; γGlu = O=C(O)[C@H](CCC(=O)[*:2])N[*:1]; αMeF = C[C@](N)(Cc1ccccc1)C(=O)O; αMeK = C[C@](N)(CCCCN)C(=O)O; Lauroyl = CCCCCCCCCCCC(=O)*; αMeS = C[C@](N)(CO)C(=O)O; AEEA = NCCOCCOCC(=O)O; Aib = CC(C)(N)C(=O)O Bounds are passed on as bounds.

Common to all, as to type: cell-based
For test [1], the target named is T1, human GLP-1 receptor (GLP-1R) (Homo sapiens, UniProt P43220).
T1 construct: expressed in transfected cells; host or cells: HEK293 cells or CHO cells
Nature of the test: cAMP assay, human GLP-1R cells. To be noted: cAMP activity; for EC50: mean of n1 and n2, read-out: Mean pM GLP-1R. The gist of the method: (§1)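 Peptide-stimulated cAMP measured by two-step HTRF after a 30 min room-temperature incubation with receptor-expressing cells (hGLP-1R, hGIPR at 1×10^5 cells/ml; hGCGR at 2×10^5 cells/ml). Duplicate dilutions; EC50 from 4-parameter logistic fit of % Delta F.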

The next test addresses T2, GLP-1R (INS1e cells) (Rattus norvegicus, UniProt P32301).
T2 construct: endogenous in cells; host or cells: INS1e cells
T2 sequence (P32301 22-463): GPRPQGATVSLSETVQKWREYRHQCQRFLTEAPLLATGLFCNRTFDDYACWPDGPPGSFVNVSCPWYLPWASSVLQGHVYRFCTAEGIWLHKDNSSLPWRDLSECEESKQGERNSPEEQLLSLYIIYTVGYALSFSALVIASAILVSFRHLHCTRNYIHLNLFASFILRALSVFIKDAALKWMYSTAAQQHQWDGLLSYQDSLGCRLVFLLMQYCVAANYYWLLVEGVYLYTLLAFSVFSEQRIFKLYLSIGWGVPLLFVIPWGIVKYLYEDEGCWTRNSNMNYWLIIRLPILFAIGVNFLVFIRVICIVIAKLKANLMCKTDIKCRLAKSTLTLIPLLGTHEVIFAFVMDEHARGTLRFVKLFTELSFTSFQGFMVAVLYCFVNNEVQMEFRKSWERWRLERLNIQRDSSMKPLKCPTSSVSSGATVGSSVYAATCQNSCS
Nature of the test: INS1e assay, cAMP activity at GLP-1R. The following applies: for EC50: mean of n1 and n2, read-out: INS1e assay EC50 Mean pM GLP-1R.

In test [2] the target is T3, human glucagon receptor (GCGR) (Homo sapiens, UniProt P47871).
T3 construct: expressed in transfected cells; host or cells: HEK293 cells or CHO cells
Briefly: cAMP assay, human GCGR cells. The method, boiled down: as §1

Test [3] deals with T4, human glucose-dependent insulinotropic peptide receptor (GIPR) (Homo sapiens, UniProt P48546).
T4 construct: expressed in transfected cells; host or cells: HEK293 cells or CHO cells
T4 sequence (P48546 22-466): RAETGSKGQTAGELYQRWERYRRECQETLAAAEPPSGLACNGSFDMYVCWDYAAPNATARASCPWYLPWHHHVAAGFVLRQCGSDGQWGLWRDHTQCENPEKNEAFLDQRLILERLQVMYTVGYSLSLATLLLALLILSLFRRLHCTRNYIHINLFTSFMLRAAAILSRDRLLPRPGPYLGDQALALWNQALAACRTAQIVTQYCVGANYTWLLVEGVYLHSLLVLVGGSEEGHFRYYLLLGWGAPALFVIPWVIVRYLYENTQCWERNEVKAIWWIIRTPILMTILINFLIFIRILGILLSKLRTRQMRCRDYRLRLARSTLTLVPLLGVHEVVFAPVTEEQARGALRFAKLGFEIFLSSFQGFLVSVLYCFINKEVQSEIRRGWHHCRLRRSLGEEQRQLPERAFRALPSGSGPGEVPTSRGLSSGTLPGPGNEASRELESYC
Briefly: cAMP assay, human GIPR cells. The gist of the method: as §1

Where [4] appears, read: Table 8, substituted and mono-lipidated peptides.
Setting [5] is: cAMP activity, second determination (n2), read-out: Primary assay EC50 Gluc-R.
The mark [6] stands for this setting: cAMP activity, first determination (n1), read-out: Primary assay EC50 GIP-R.
Setting [7] is: cAMP activity, second determination (n2), read-out: Primary assay EC50 GIP-R.
Where [8] appears, read: first determination (n1), read-out: Primary assay EC50 GLP-1R n1.
[9] abbreviates: second determination (n2), read-out: Primary assay EC50 GLP-1R n2.
Setting [10] is: Table 8, substituted and mono-lipidated peptides, replicate n1, read-out: INS1e assay EC50 GLP-1R n1.
The mark [11] stands for this setting: Table 8, substituted and mono-lipidated peptides, replicate n2, read-out: INS1e assay EC50 GLP-1R n2.

T3 sequence (P47871 26-477): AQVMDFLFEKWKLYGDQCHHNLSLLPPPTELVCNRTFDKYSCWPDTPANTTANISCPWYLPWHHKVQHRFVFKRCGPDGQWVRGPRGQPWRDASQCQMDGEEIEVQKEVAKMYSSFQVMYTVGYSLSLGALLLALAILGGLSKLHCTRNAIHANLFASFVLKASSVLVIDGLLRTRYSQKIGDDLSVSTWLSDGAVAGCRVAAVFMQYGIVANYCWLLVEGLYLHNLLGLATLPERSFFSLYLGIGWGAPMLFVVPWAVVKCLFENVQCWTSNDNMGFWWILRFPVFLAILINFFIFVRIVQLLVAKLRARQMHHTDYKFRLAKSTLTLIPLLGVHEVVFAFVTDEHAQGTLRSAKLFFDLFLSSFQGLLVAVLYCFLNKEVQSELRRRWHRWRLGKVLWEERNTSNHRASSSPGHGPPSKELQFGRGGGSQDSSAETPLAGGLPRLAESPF
T1 sequence (P43220 24-463): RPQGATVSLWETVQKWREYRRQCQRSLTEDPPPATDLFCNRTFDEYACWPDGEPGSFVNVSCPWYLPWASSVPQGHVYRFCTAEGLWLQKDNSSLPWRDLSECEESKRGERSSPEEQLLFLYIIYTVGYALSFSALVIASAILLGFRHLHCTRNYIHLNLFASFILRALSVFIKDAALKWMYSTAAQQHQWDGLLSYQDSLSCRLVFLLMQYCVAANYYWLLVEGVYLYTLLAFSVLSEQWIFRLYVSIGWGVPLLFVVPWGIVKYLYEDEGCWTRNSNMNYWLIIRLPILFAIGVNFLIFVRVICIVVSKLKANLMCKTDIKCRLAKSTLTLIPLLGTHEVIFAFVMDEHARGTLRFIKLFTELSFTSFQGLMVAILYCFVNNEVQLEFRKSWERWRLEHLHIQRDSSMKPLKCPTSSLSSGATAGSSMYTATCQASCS

In the case of `CC[C@H](C)[C@H](NC(=O)[C@](C)(Cc1ccccc1)NC(=O)[C@H](CCC(=O)O)NC(=O)[C@H](CCC(=O)O)NC(=O)[C@H](C)NC(=O)[C@H](C)NC(=O)[C@H](CCC(=O)O)NC(=O)CNC(=O)[C@H](CCC(=O)O)NC(=O)[C@H](CC(C)C)NC(=O)[C@](C)(Cc1ccccc1)NC(=O)[C@H](CO)NC(=O)[C@](C)(CO)NC(=O)[C@@H](NC(=O)[C@H](CC(=O)O)NC(=O)[C@H](CO)NC(=O)[C@@H](NC(=O)[C@](C)(Cc1ccccc1)NC(=O)[C@H](CO)NC(=O)CNC(=O)[C@H](CCC(=O)O)NC(=O)C(C)(C)NC(=O)[C@@H](N)Cc1c[nH]cn1)[C@@H](C)O)C(C)C)C(=O)N[C@@H](C)C(=O)N[C@@](C)(Cc1ccccc1)C(=O)N[C@H](C(=O)N[C@H](C(=O)N[C@@H](CCC(=O)O)C(=O)NCC(=O)NCC(N)=O)C(C)C)C(C)C` [compound 44] (H-H[Aib]EGS[αMeF]TSDV[αMeS]S[αMeF]LEGEAAEE[αMeF]IA[αMeF]VVEGG-NH2), the EC50 was found to be 6.7 pM in test [1] and 455 pM at GLP-1R (INS1e cells) (setting [4]).

For `CC[C@H](C)[C@H](NC(=O)[C@](C)(Cc1ccccc1)NC(=O)[C@H](CCC(=O)O)NC(=O)[C@H](CCCCNC(=O)COCCOCCNC(=O)COCCOCCNC(=O)CC[C@H](NC(=O)CCCCCCCCCCCCCCCCC(=O)O)C(=O)O)NC(=O)[C@H](C)NC(=O)[C@H](C)NC(=O)[C@H](CCC(=O)O)NC(=O)CNC(=O)[C@H](CCC(=O)O)NC(=O)[C@H](CC(C)C)NC(=O)[C@](C)(Cc1ccccc1)NC(=O)[C@H](CO)NC(=O)[C@H](CO)NC(=O)[C@@H](NC(=O)[C@H](CC(=O)O)NC(=O)[C@H](CO)NC(=O)[C@@H](NC(=O)[C@](C)(Cc1ccccc1)NC(=O)[C@H](CO)NC(=O)CNC(=O)[C@H](CCC(=O)O)NC(=O)C(C)(C)NC(=O)[C@@H](N)Cc1c[nH]cn1)[C@@H](C)O)C(C)C)C(=O)N[C@@H](C)C(=O)N[C@@](C)(Cc1ccccc1)C(=O)N[C@H](C(=O)N[C@H](C(=O)N[C@@](C)(CCCCN)C(=O)NCC(=O)NCC(N)=O)C(C)C)C(C)C` [compound 46], the pEC50 in test [2] (setting [5]) was no more than 7.59; in test [3] (setting [6]), no more than 7.59; in test [3] (setting [7]), no more than 7.59; in test [1] (setting [8]), 9.04; in test [1] (setting [9]), 8.66; at GLP-1R (INS1e cells) (setting [10]), 7.28. Further, the pEC50 on GLP-1R (INS1e cells) (setting [11]) was 7.08. For the same molecule, the figures for the EC50 (in test [1]; at GLP-1R (INS1e cells) (setting [4])) were 1560 pM and 68000 pM, respectively.

As to `CC[C@H](C)[C@H](NC(=O)[C@](C)(Cc1ccccc1)NC(=O)[C@H](CCC(=O)O)NC(=O)[C@H](CCCCNC(=O)COCCOCCNC(=O)COCCOCCNC(=O)CC[C@H](NC(=O)CCCCCCCCCCCCCCCCC(=O)O)C(=O)O)NC(=O)[C@H](C)NC(=O)[C@H](C)NC(=O)[C@H](CCC(=O)O)NC(=O)CNC(=O)[C@H](CCC(=O)O)NC(=O)[C@H](CC(C)C)NC(=O)[C@H](Cc1ccc(O)cc1)NC(=O)[C@H](CO)NC(=O)[C@](C)(CO)NC(=O)[C@@H](NC(=O)[C@H](CC(=O)O)NC(=O)[C@H](CO)NC(=O)[C@@H](NC(=O)[C@](C)(Cc1ccccc1)NC(=O)[C@H](CO)NC(=O)CNC(=O)[C@H](CCC(=O)O)NC(=O)C(C)(C)NC(=O)[C@@H](N)Cc1c[nH]cn1)[C@@H](C)O)C(C)C)C(=O)N[C@@H](C)C(=O)N[C@@](C)(Cc1ccccc1)C(=O)N[C@H](C(=O)N[C@H](C(=O)N[C@@](C)(CCCCN)C(=O)NCC(=O)NCC(N)=O)C(C)C)C(C)C` [compound 47] (H-H[Aib]EGS[αMeF]TSDV[αMeS]SYLEGEAAK([AEEA-AEEA-γGlu-C18 diacid])E[αMeF]IA[αMeF]VV[αMeK]GG-NH2; N-terminus assumed), the negative-log EC50 (pEC50) in test [2] (setting [5]) is no more than 7.60; in test [3] (setting [6]), no more than 7.60; in test [3] (setting [7]), no more than 7.60; in test [1] (setting [8]) it was 10.43; in test [1] (setting [9]), 10.30; at GLP-1R (INS1e cells) (setting [10]) it was 8.15. Moreover, the negative logarithm of the EC50 (pEC50) on GLP-1R (INS1e cells) (setting [11]) is 7.91. Also, the EC50 in test [1] was 43.3 pM; at GLP-1R (INS1e cells) (setting [4]) it was 9670 pM.

With `CCCCCCCCCCCC(=O)N[C@@H](CCC(=O)NCCOCCOCC(=O)NCCOCCOCC(=O)NCCCC[C@H](NC(=O)[C@H](CC(=O)O)NC(=O)[C@H](CO)NC(=O)[C@@H](NC(=O)[C@](C)(Cc1ccccc1)NC(=O)[C@H](CO)NC(=O)CNC(=O)[C@H](CCC(=O)O)NC(=O)C(C)(C)NC(=O)[C@@H](N)Cc1c[nH]cn1)[C@@H](C)O)C(=O)N[C@@H](CO)C(=O)N[C@@H](CO)C(=O)N[C@@H](Cc1ccc(O)cc1)C(=O)N[C@@H](CC(C)C)C(=O)N[C@@H](CCC(=O)O)C(=O)NCC(=O)N[C@@H](CCC(=O)O)C(=O)N[C@@H](C)C(=O)N[C@@H](C)C(=O)N[C@@](C)(CCCCN)C(=O)N[C@@H](CCC(=O)O)C(=O)N[C@@H](Cc1ccccc1)C(=O)N[C@H](C(=O)N[C@@H](CCCCNC(=O)COCCOCCNC(=O)COCCOCCNC(=O)CC[C@H](NC(=O)CCCCCCCCCCC)C(=O)O)C(=O)N[C@@H](Cc1c[nH]c2ccccc12)C(=O)N[C@H](C(=O)N[C@H](C(=O)N[C@@H](CCC(=O)O)C(=O)NCC(=O)NCC(N)=O)C(C)C)C(C)C)[C@@H](C)CC)C(=O)O` [compound 256] (H-H[Aib]EGS[αMeF]TSDK([AEEA-AEEA-γGlu-Lauroyl])SSYLEGEAA[αMeK]EFIK([AEEA-AEEA-γGlu-Lauroyl])WVVEGG-NH2; N-terminus assumed), the pEC50 in test [2] (Table 9, bis-lipidated peptides, first replicate, read-out: Primary assay EC50 Gluc-R (n1)) is no more than 7.65; in test [2] (Table 9, bis-lipidated peptides, second replicate, read-out: Primary assay EC50 Gluc-R (n2)), no more than 7.65; in test [3] (Table 9, bis-lipidated peptides, first replicate, read-out: Primary assay EC50 GIP-R (n1)), no more than 7.65; in test [3] (Table 9, bis-lipidated peptides, second replicate, read-out: Primary assay EC50 GIP-R (n2)), no more than 7.65. The EC50 on GLP-1R (INS1e cells) (Table 10, bis-lipidated peptides) worked out at 1300 pM.

`CCCCCCCCCCCC(=O)N[C@@H](CCC(=O)NCCOCCOCC(=O)NCCOCCOCC(=O)NCCCC[C@H](NC(=O)[C@H](C)NC(=O)[C@@H](NC(=O)[C@H](Cc1ccccc1)NC(=O)[C@H](CCCCNC(=O)COCCOCCNC(=O)COCCOCCNC(=O)CC[C@H](NC(=O)CCCCCCCCCCC)C(=O)O)NC(=O)[C@](C)(CCCCN)NC(=O)[C@H](C)NC(=O)[C@H](C)NC(=O)[C@H](CCC(=O)O)NC(=O)CNC(=O)[C@H](CCC(=O)O)NC(=O)[C@H](CCCCNC(=O)COCCOCCNC(=O)COCCOCCNC(=O)CC[C@H](NC(=O)CCCCCCCCCCC)C(=O)O)NC(=O)[C@H](Cc1ccc(O)cc1)NC(=O)[C@H](CO)NC(=O)[C@](C)(CO)NC(=O)[C@@H](NC(=O)[C@H](CC(=O)O)NC(=O)[C@H](CO)NC(=O)[C@@H](NC(=O)[C@](C)(Cc1ccccc1)NC(=O)[C@H](CO)NC(=O)CNC(=O)[C@H](CCC(=O)O)NC(=O)C(C)(C)NC(=O)[C@@H](N)Cc1c[nH]cn1)[C@@H](C)O)C(C)C)[C@@H](C)CC)C(=O)N[C@H](C(=O)N[C@H](C(=O)N[C@@H](CCC(=O)O)C(=O)NCC(=O)NCC(N)=O)C(C)C)C(C)C)C(=O)O` [compound 470] (H-H[Aib]EGS[αMeF]TSDV[αMeS]SYK([AEEA-AEEA-γGlu-Lauroyl])EGEAA[αMeK]K([AEEA-AEEA-γGlu-Lauroyl])FIAK([AEEA-AEEA-γGlu-Lauroyl])VVEGG-NH2; N-terminus assumed): the EC50 on GLP-1R (INS1e cells) (Table 12, tris-lipidated peptides) was 3660 pM.
